Assay results from patent US20230020469A1, “USE OF CO-CRYSTALS OF TRAMADOL AND CELECOXIB FOR TREATING PAIN WHILE REDUCING THE ABUSE LIABILITY OF TRAMADOL” (ESTEVE PHARMACEUTICALS, S.A., priority 2019, published 2023).

Assay: Single dose, open-label, 4-period crossover pharmacokinetic study; plasma tramadol and O-desmethyltramadol (M1) by HPLC-MS/MS; AQ=Cmax/Tmax
Details: for AQ for tramadol, comparison between treatments (in words): 4-way cross-over study, co-crystal vs Ultram® and vs Ultram® and Celebrex® taken concomitantly, Ultram® alone vs in combination; for O-desmethyltramadol AQ / Tramadol AQ: n 33, 2 × 100 mg co-crystal E-58425 tablets oral (Treatment 1), healthy subjects
Procedure: The study was a single center, randomized, single dose, open-label, 4-period, 4-sequence, crossover design in healthy male and female subjects.
The products were administered to 36 subjects. The wash-out between the periods for each subject was of 7 calendar days.
Separate blood samples were obtained for analysis of tramadol/M1 metabolite and for analysis of celecoxib (data not shown).
As soon as possible following blood collection, samples were centrifuged at a temperature of 4° C. nominal and at approximately 1500 g for 10 minutes. The plasma obtained was separated into duplicate polypropylene culture tubes. […] The samples were frozen in an upright position and retained in the clinic's freezers at a temperature of −20° C. nominal until sent on dry ice to the bioanalytical facility for assay.
The experimental human plasma samples were assayed for tramadol and M1 metabolite (0-desmethyltramadol) and also for celecoxib (data not shown) using two different validated bioanalytical methods by HPLC with MS/MS detection.
Sample pre-treatment involved the liquid-liquid extraction of tramadol and O-desmethyltramadol from 0.100 mL of human plasma; tramadol-D6 and O-desmethyltramadol-D6 were used as the internal standards (IS1 and IS2 respectively). The compounds were identified and quantified using Hilic HPLC with MS/MS detection over a theoretical concentration range of 2.00 ng/mL to 800.00 ng/mL for tramadol and 0.500 ng/mL to 200.00 ng/mL for O-desmethyltramadol. The concentrations were calculated using peak area ratios and the linearity of the calibration curve was determined using a weighted (1/x^2) linear (y=mx+b) least squares regression analysis for tramadol and for O-desmethyltramadol.
Pharmacokinetic parameters were estimated from the individual plasma concentration—time profile for each subject. The main absorption and disposition parameters were obtained using a non-compartmental approach with a log-linear terminal phase assumption. Maximum observed plasma concentration (Cmax) and the time of maximum observed plasma concentration (Tmax) were obtained directly from the experimental data. The trapezoidal rule was used to estimate the area under the curve (AUC; data not shown) and the terminal phase was estimated by maximizing the coefficient of determination estimated from the log-linear regression model (T1/2; data not shown). The abuse quotient was obtained using the following expression AQ=Cmax/Tmax.

COc1cccc(C2(O)CCCCC2CN(C)C)c1.Cc1ccc(-c2cc(C(F)(F)F)nn2-c2ccc(S(N)(=O)=O)cc2)cc1.Cl (racemic) [Co-crystal E-58425, co-crystal of (rac)-tramadol.HCl and celecoxib]
AQ for tramadol, comparison between treatments (in words): lower
AQ for tramadol, comparison between treatments (in words) (listed as co-crystal E-58425): better (lower)
O-desmethyltramadol AQ (Mean): 13.5 ng/(mL · h)
Tramadol AQ (Mean): 70.5 ng/(mL · h)
O-desmethyltramadol AQ (Median): 13.3 ng/(mL · h)
Tramadol AQ (Median): 70.7 ng/(mL · h)
